“Also recorded” adds a separate entry of the source. Where two headings read alike, the source gives them in different places.

The results in this text go back to paper PMC6630837 (Pharmaceuticals, 2019).

The format of series [1] is in vitro ADME. Conditions: PAMPA, pH 7.4, 16 h. The procedure: Parallel artificial membrane permeability assay (PAMPA). Effective permeability (log Pe) was determined in a 96-well format with PAMPA [34]. For each compound, measurements were performed at pH 7.4 in quadruplicates. Four wells of a deep well-plate were filled with 650 μL of PRISMA HT universal buffer, adjusted to pH 7.4 by adding the requested amount of NaOH (0.5 M). Samples (150 μL) were withdrawn from each well to determine the blank spectra by UV/Vis-spectroscopy (190 to 500 nm, SpectraMax 190, Molecular Devices, Silicon Valley, CA, USA). Then the analyte, dissolved in DMSO (10 mM), was added to the remaining buffer to yield 50 μM solutions. To exclude precipitation, the optical density (OD) was measured at 650 nm, and solutions exceeding OD 0.01 were filtrated. Afterwards, samples (150 μL) were withdrawn to determine the reference spectra. […] The filter membranes at the bottom of the acceptor plate were infused with 5 μL of GIT-0 Lipid Solution and 200 μL of Acceptor Sink Buffer were filled into each acceptor well. The sandwich was assembled, placed in the GutBox^TM, and left undisturbed for 16 h. Then, it was disassembled and samples (150 μL) were transferred from each donor and acceptor well to UV-plates for determination of the UV/Vis spectra.
(In general: The PAMPA barrier holds no transporters, so it reflects passive diffusion.)

A short description of series [2]: LogD7.4 determination (octan-1-ol/phosphate buffer, LC-MS). The format is physicochemical. Conditions: read-out: Log D7.4 (partition coefficient at pH 7.4). On the procedure:
LogD7.4 determination. The in-silico prediction tool ALOGPS [4] was used to estimate the octanol-water partition coefficients (log P) of the compounds. […] For each category, two different ratios (volume of octan-1-ol to volume of buffer) were defined as experimental parameters (Table 2).
Equal amounts of phosphate buffer (0.1 M, pH 7.4) and octan-1-ol were mixed and shaken vigorously for 5 min to saturate the phases. The mixture was left until separation of the two phases, and the buffer was retrieved. Stock solutions of the test compounds were diluted with buffer to a concentration of 1 μM. For each compound, three determinations per octan-1-ol:buffer ratio were performed in different wells of a 96-well plate. The respective volumes of buffer-containing analyte (1 μM) were pipetted to the wells and covered by saturated octan-1-ol according to the chosen volume ratio. […] The aqueous phase was transferred to a 96-well plate for analysis by liquid chromatography-mass spectrometry (LCMS, see below).
Results are presented as the mean ± SD of three independent experiments.
LC-MS measurements. […] The system was controlled with the Agilent MassHunter Workstation Data Acquisition software (version B.01.04). The column used was an AtlantisR T3 C18 column (2.1 × 50 mm) with a 3 μm-particle size (Waters Corp., Milford, MA, USA). The mobile phase consisted of eluent A: 10 mM ammonium acetate, pH 5.0 in 95:5, H2O:MeCN; and eluent B: MeCN containing 0.1% formic acid. The flow rate was maintained at 0.6 mL/min. […] MS parameters such as fragmentor voltage, collision energy, and polarity were optimized individually for each drug, and the molecular ion was followed for each compound in the multiple reaction monitoring mode. The concentrations of the analytes were quantified by the Agilent Mass Hunter Quantitative Analysis software (version B.01.04).

The subject of series [3] is SH-SY5Y neuroblastoma cells. The series is described as follows: Cytotoxic activity of compounds alone, MTT cell viability assay. Conditions: 50 μM compound alone, 24 h, 37 °C, 0.5% DMSO, SH-SY5Y. The procedure: Neuroprotective assays in human neuroblastoma (SH-SY5Y) cells. SH-SY5Y cells were grown in Dulbecco’s Modified Eagle Medium (DMEM, Gibco, Life Technologies) supplemented with 10% fetal bovine serum (FBS, Biochrom GmbH) and 1% Penicillin-Streptomycin (Gibco, Life Technologies) in a humidified incubator at 37 °C, 5% CO2. For the neuroprotective activity assay, undifferentiated SGSY-5Y cells were plated onto 96-well flat-bottomed microtiter plates at a density of 1 × 10^4 cells/well in DMEM supplemented with 2% FBS and preincubated for 24 h at 37 °C, 5% CO2. Compounds (stored as 10 mM solutions in DMSO at −20 °C) were then added to achieve a final concentration of 50 μM and, after 30 min, cells were incubated in the presence or absence of 20 μM Aβ protein fragment 1-42 (Sigma-Aldrich, dissolved in DMSO and stored in 2 mM aliquots at −20 °C) or 100 μM of H2O2 (Sigma-Aldrich, dissolved to 10 mM in 0.9% NaCl aqueous solution immediately prior to the assay) overnight at 37 °C, 5% CO2. […] The following morning, 20 μL of a 5 mg/mL solution of 3-(4,5-dimethylthiazol-2-yl)-2,5-diphenyltetrazolium bromide (MTT, Sigma-Aldrich) in PBS (Gibco, Life Technologies) was added to each well and the plates were further incubated for 4 h at 37 °C, followed by the addition of DMSO (200 μL) to each well in order to dissolve the resulting formazan crystals. After 2 h incubating at 37 °C, the optical density (OD) at 540 nm (with a 620 nm reference filter) was measured in an Amersham Biosciences Biotrak II Plate Reader. The percentage of MTT reduction was determined according to Equation (1). […] Differences between experimental conditions were compared for statistical significance by one-way ANOVA followed by a Tukey’s post-test, an analysis carried out using GraphPad Prism Software (LA Jolla, CA, USA). Differences were considered significant when P < 0.05. In order to exclude direct MTT reduction, compounds were also tested in (a) the absence of cells and (b) in the absence of both cells and culture medium, using the same experimental conditions described above. (2) MTT Reduction (% of Control)=[ODsample−ODmedium/ODcell control−ODmedium] × 100 […]
Tabl e S2. Cytotoxic activity of each compound assessed in SH-SY5Y neuroblastoma cells via an MTT cell viability assay.a Comp ound Nr. MTT reduction (% control) p-va l u e vs . untreated cell control (unpai red t-t es t) […]
a Cells were incubated for 24 h at 37 °C, in the presence (50 μM) or absence of each compound.
In general terms: Tetrazolium dyes change colour on reduction, which living cells bring about.

Series [4] concerns the target acetylcholinesterase (AChE) (Electrophorus electricus, UniProt O42275). Description: Acetylcholinesterase inhibition, Ellman's colorimetric assay. The series is classed as biochemical. Conditions: 100 µM compound. On the procedure: For cholinesterase inhibition tests (acetylcholinesterase (AChE, electrophorus
was kept within 1.25% cuvette concentration.
AChE and at 18.2 µM concentration for BuChE. […]

Series [5] concerns SH-SY5Y human neuroblastoma cells. The series is described as follows: Neuroprotection against H2O2-induced toxicity, MTT cell viability assay. The format is cell-based. Conditions: 50 μM compound, 100 μM H2O2, 24 h, 37 °C. From the text: Neuroprotective activity assays against H2O2-induced toxicity. On the basis of previously described protocols, the flavones and analogues herein synthesized were screened for their neuroprotective effects against H2O2-induced oxidative stress and neuronal damage in SH-SY5Y human neuroblastoma cells by means of a thiazolyl blue tetrazolium bromide (MTT) reduction-based cell viability assay.
(§1) Neuroprotective assays in human neuroblastoma (SH-SY5Y) cells. […] Differences were considered significant when P < 0.05.

Series [6] addresses T1, butyrylcholinesterase (BuChE) (Equus caballus, UniProt P81908).
T1 construct: (BuChE, equine serum); from tissue; host or cells: equine serum
Description: biochemical. Conditions: for inhibition at 100 µM: read-out: BuChE inhibitory efficacy (percentage of inhibition). On the procedure:
Experimental procedures for cholinesterase inhibition a s sa y s. For cholinesterase inhibition tests (acetylcholinesterase (AChE, electrophorus
el ec t r ic u s) a n d b ut yr ylcholinesterase (BuChE, equine serum), the Ellman’s cholorimetric assay1 was followed, with minor modifications. DMSO
was kept within 1.25% cuvette concentration. The chromogenic agent DTNB [5,5’-dithiobis(2-nitrobenzoic acid)] was fixed at 0.975 mM
con centration; 0. 1 M phosphate buffer (pH 8. 0) was employed, T = 25 °C, and the reaction was monitored for 125 s. […]
of inhibition, the substrate concentration (acetylthiocholine iodide for AChE; S- butyr ylthiocholine iodide for BuChE) was fixed at 29 µM for
AChE and at 18.2 µM concentration for BuChE.
Lineweaver-Burk plot (or double reciprocal plot, 1/V vs . 1/ [S ]) wa s u se d for estimating both, the mode of inhibition and the inhibition constants […]
Competitive inhibition (inhibitor only bonds the free enzyme):
KKiiii = [II ]KKMM iiaaaa
M i xe d inhibition (inhibitor binds both, the free and the complexed enzyme) :
Uncompetitive (the inhibitors only binds the complexed enzyme):
N on -competitive (inhibitor binds both the free enzyme and the complexed enzyme with equal affinity) :
Table S3. […]
of the synthesized flavone analogues at 100 µ M.
C omp ou n d N o. AChE B uChE

In series [7] the test system is SH-SY5Y human neuroblastoma cells. The series is described as follows: Neuroprotection against Aβ1-42-induced toxicity, MTT cell viability assay. The series is classed as cell-based. Conditions: 50 μM compound, 20 μM Aβ1-42, 24 h, 37 °C. On the procedure: Neuroprotective activity assays against Aβ1-42-induced toxicity. From all compounds tested in the above presented assay, the pair 8 and 19 presented the strongest neuroprotective potential, with convincing proof on the importance of the aglycone for the desired neuroprotective effects against H2O2-induced cell injury. […] Here, the MTT assay was used once again to assess cell viability of SH-SY5Y cells treated with 20 μM of Aβ1-42, in the presence of 50 μM of each compound. Similar protocols have been used to screen candidates for AD therapy. Moreover, based on the existing evidence that in situ spontaneous fibrillization of Aβ1-42 in the incubation mixture is important in the triggering of neurotoxic effects, we added the Aβ1-42 peptide fragment dissolved in DMSO to the culture medium prior to incubation, together with each compound in study. […] Even though there is published evidence that undifferentiated SH-SY5Y cells are not as sensitive to Aβ1-42-induced neurite degeneration and apoptosis as differentiated ones, with 20 μM of Aβ1-42 we were able to observe a significant decrease in cellular MTT reduction capacity, corresponding to roughly half of the cell viability rates observed in the non-treated control.
as §1

Where [8] appears, read: octan-1-ol/phosphate buffer, pH 7.4, octan-1-ol/phosphate buffer pH 7.4, 25 °C.

T1 sequence (P81908 whole entry): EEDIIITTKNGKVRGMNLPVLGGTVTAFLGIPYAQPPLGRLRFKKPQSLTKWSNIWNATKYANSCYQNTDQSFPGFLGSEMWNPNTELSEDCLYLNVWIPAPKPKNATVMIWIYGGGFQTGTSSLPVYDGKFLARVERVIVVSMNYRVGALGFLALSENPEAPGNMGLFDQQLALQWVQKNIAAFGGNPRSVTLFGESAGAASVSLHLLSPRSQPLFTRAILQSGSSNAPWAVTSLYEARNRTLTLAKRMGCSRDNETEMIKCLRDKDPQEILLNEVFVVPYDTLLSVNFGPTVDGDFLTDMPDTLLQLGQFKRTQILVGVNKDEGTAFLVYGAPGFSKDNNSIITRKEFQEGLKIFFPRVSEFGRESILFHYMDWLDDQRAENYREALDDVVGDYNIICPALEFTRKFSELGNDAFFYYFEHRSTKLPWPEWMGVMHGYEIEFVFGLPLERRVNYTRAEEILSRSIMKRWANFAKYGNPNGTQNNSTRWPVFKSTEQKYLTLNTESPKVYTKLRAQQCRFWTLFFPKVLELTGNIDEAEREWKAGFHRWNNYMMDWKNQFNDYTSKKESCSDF
Sequence of acetylcholinesterase (AChE) (O42275 24-633): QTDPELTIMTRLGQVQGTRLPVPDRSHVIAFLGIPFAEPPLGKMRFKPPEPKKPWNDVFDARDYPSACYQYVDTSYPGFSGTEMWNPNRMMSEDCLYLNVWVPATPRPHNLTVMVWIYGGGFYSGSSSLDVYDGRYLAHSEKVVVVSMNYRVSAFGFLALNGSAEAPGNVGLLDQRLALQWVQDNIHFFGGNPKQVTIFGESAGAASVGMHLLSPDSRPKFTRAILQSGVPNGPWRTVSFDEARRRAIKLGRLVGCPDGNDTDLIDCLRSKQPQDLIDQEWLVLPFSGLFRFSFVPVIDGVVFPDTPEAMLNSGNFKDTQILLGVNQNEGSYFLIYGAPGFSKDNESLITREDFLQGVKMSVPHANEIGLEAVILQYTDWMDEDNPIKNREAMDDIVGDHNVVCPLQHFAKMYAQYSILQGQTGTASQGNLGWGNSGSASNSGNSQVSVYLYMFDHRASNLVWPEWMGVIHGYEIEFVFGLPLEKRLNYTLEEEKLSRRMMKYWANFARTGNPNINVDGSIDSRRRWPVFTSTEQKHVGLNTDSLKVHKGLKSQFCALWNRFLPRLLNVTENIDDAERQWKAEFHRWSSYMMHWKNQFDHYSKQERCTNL

Take `O=c1cc(-c2ccc(F)cc2)oc2c([C@@H]3O[C@H](CO)[C@@H](O)[C@H](O)[C@H]3O)c(O)cc(O)c12` [Compound 18, 4′-Fluoro-8-(β-D-glucopyranosyl)-5,7-dihydroxyflavone]: the “Log Pe (effective permeability)” value in series [1] is “no detectable permeability; also recorded: Below detection limit”. Moreover, the logD in series [2] (setting [8]) was -0.2 ± 0.1. Besides, the “MTT reduction (% control)” value in series [3] is reported as 136.7 ±12.9%.

One may read the inhibition as how much of the control response was suppressed. The Ki is a measure of affinity in units of concentration, obtained from inhibition or displacement. As to `O=c1cc(-c2ccccc2)oc2cc(O)cc(O)c12` [Compound 1, chrysin, reference compound], the inhibition at 100 µM in series [4] (read-out: AChE inhibitory efficacy (percentage of inhibition)) turned out to be 18%. Moreover, in series [5], the “Neuroprotective effect against H2O2-induced toxicity (MTT cell viability)” value is listed as “absence of significant effects”. For the same molecule, the logD in series [2] (octan-1-ol/phosphate buffer pH 7.4, 25 °C) was 3.6 ± 0.4. Besides, in series [6], the affinity corresponds to a Ki of 32 ± 4 µM and the inhibition at 100 µM turned out to be 64%. Besides, the “Butyrylcholinesterase inhibition, ranking in words” value in series [6] (100 µM compound) is “the most active butyrylcholinesterase inhibitor”. The Mode of inhibition result in series [6] (BuChE, Lineweaver-Burk plot) is “Non-* co mp etit iv e in hi bit io n”. For the same molecule, the “MTT reduction (% control)” value in series [3] is 96.2 ± 26.9%.

As to `O=c1cc(-c2ccc(N3CCOCC3)cc2)oc2cc(O)cc(O)c12` [Compound 8, 5,7-Dihydroxy-4′-(morpholin-4-yl)flavone], the “Neuroprotective effect against Aβ1-42-induced toxicity (MTT cell viability)” value in series [7] is reported as “displayed relevant neuroprotective effects against Aβ1-42”. The “Neuroprotective effect against H2O2-induced toxicity (MTT cell viability)” value in series [5] is “able to produce statistically significant differences when compared to H2O2 controls”. Further, in series [2] (setting [8]), the logD was greater than 2.5. For the same molecule, the “MTT reduction (% control)” value in series [3] is on record as 57.6 ± 25.5%.

`O=c1cc(-c2ccc(F)cc2)oc2cc(O)cc(O)c12` [Compound 7, 4′-Fluoro-5,7-dihydroxyflavone]: in series [4], the “AChE inhibitory efficacy (percentage of inhibition)” value is “n.i ”. Besides, the “Neuroprotective effect against Aβ1-42-induced toxicity (MTT cell viability)” value in series [7] is “contrarily”. Further, the logD in series [2] (setting [8]) was greater than 2.5. Besides, the inhibition at 100 µM in series [6] amounted to 23%. For the same molecule, the “MTT reduction (% control)” value in series [3] was found to be 109.4 ± 11.4%.
